“Also recorded” adds a separate entry of the source.
Columns and labels:
[1] = phase I study, pharmacokinetics; assay type: in vivo; settings: human, plasma; phase 1, patients, oral
[2] = test system: relapsed or refractory SCLC and other solid tumors; assay: phase I dose-escalation study, tumor response (RECIST); assay type: in vivo, human
Source text: (§1) This example illustrates a phase I dose-escalation study to evaluate the safety, pharmacokinetics, and preliminary efficacy of navitoclax in subjects with relapsed or refractory SCLC and other solid tumors. This phase I study of navitoclax, a novel inhibitor of Bcl-2 family proteins, was designed to evaluate safety, pharmacokinetics, and preliminary efficacy in subjects with small cell lung cancer (SCLC) or other solid tumors.
(§2) Subjects enrolled to intermittent dosing cohorts received navitoclax on Days 1-14 followed by 7 days off. Subjects on continuous dosing cohorts received a one week lead-in dose of 150 mg followed by continuous daily administration of navitoclax. Blood samples were collected for pharmacokinetic analyses, biomarker analyses, and platelet monitoring.
Subjects included histologically documented SCLC or other non-hematologic malignancies, age ≧18, Eastern Cooperative Oncology Group performance status (ECOG PS) of ≦2, measurable disease by Response Evaluation Criteria in Solid Tumors (RECIST 1.0), and had received at least one prior chemotherapy treatment with documented progression. Subjects with brain metastases were included if they had surgery and/or radiation therapy followed by 21 days of stable neurologic function and stable disease by imaging prior to the first dose of study drug. Additional inclusion criteria included adequate bone marrow, renal and hepatic function per local laboratory reference range, non-pregnant status, and a life expectancy of ≧90 days.
(§3) Subjects were evaluated with history, physical exam, vital signs, complete blood count, chemistries, urinalysis and ECOG PS weekly through C2 and on D1 of each subsequent cycle. ECG and 2D-ECHO were obtained on C1D-3, C1D14, C3D1, C3D14, and end of study. Platelet counts were obtained on D-3 through 14 of C1, and weekly through each subsequent cycle. Lymphocyte enumeration was performed at screening, C1D14, at the end of C4, and at the end of every 3rd cycle thereafter. Radiographic tumor assessments were performed at baseline, after the 2nd and 4th cycles and after every 3 cycles thereafter.

M30 [3] = assay: phase 2 study, M30 ELISA assay in patient serum; assay type: in vivo, human
Method: Serum and plasma samples collected at the same intervals were stored at −70° C. or colder until analyzed for quantitative assessment of tumor markers. CYFRA 21-1 and Pro-GRP were measured using the automated [sequence] ELISA kits (Abbott Diagnostics, Abbott Park, Ill.) and NSE was measured in plasma using automated electrochemoluminescent assays on Elecsys 2010 (Roche Diagnostics, Germany). Serum samples were analyzed for M30 and M65 (Peviva AB, Sweden) using previously described assays validated to good clinical laboratory practice (see, Cummings J., et al., Br J Cancer 92:532-8, 2005; and Cummings J., et al., Br J Cancer 95:42-8, 2006).
This assay measures the release of caspase-cleaved cytokeratin 18 following apoptotic cell death.

[4] = phase 2 study, safety / study discontinuation; assay type: in vivo, human; settings: phase 2, 39 patients
Method: Safety assessments included history and physical examinations, vital signs, ECOG performance status, AEs, blood chemistry and complete blood counts with differential. Safety assessments were performed at screening, weekly during cycle 1, and at the start of subsequent cycles. Adverse event severity was graded according to the National Cancer Institute Common Terminology Criteria for Adverse Events (NCI CTCAE), version 3.0 (Common Terminology Criteria for Adverse Events. Version 3.0. Available at NCI website for the cancer therapy evaluation program (CTEP). Relationships of adverse events to navitoclax (definitely, probably, possibly, unlikely, or unrelated) were assessed by the Principal Investigator at each site.
A total of 39 patients participated in the phase 2 study. The majority of patients were of performance status 1. The median number of prior therapeutic regimens was 2 (range 1-6). All patients were started at the planned dose and schedule, including dose escalation to 325 mg in week 2. The primary reasons for study discontinuation included disease progression (N=26, 67%) and AEs (N=11, 28%). The median number of treatment cycles was 2 (range, 1-11) and the median treatment duration was 1.3 months (range, 0.2-7.3).

[5] = test system: circulating tumor cells (CTC); assay: phase 2 study, circulating tumor cell number (CellSearch); assay type: in vivo, human
Method: Blood specimens for analyzing circulating tumor cells (CTC) were collected at screening, on day 14 of cycles 1 and 2, and at final study visit (for US patients only). […] Samples enriched for CTC are removed from the Veridex cartridge after the imaging and enumeration, washed 1× in PBS, pelleted then resuspended in 100 μL PBS and dropped onto a positively charged slide (Biogenex, San Ramon, Calif.) and dried. The slides are then rinsed in H2O prior to imaging using the Carl Zeiss (Germany) or Bioview imaging systems (Tel Aviv, Israel), the CTC are identified and the locations recorded. […] The slides are then returned to the Zeiss or Bioview imaging systems and the previously identified CTC are assessed for DNA copy number.
To further evaluate this association, we assessed plasma Pro-GRP, and BCL2 copy number by FISH in CTC from patients on this study (n=10).

pro-GRP = assay: phase I study, plasma pro-GRP (ARCHITECT ELISA); assay type: in vivo, human; settings: with increasing dose
Method: (§4) Blood samples for circulating tumor cells (CTCs) were collected at screening, C1D14, C2D14, and at the end of study treatment. Samples for the plasma marker Pro-GRP were collected at screening, C1D14, C2D14, and at the end of study. Samples for serum marker M30 were collected at screening, pre-dose, 6 and 24 hours post-dose on C1D-3 (for 14/21 day dosing) or lead-in day 2 for 21/21 day dosing). Samples were also collected on C1D14; pre-dose and 6 hours post-dose on C2D1; C2D14; end of cycle 4; and every 3rd cycle thereafter and at the final visit for all subjects.
(§5) The CTC were analyzed via the CellSearch system (Veridex, Raritan, N.J.). […] Pro-GRP was measured using ARCHITECT ELISA kits (Abbott Diagnostics, Abbott Park, Ill.). Serum samples were analyzed for M30 and M65 (Peviva) using previously described assays validated to good clinical laboratory practice (Cummings J, Ward T H, LaCasse E, et al: Validation of pharmacodynamic assays to evaluate the clinical efficacy of an antisense compound (AEG 35156) targeted to the X-linked inhibitor of apoptosis protein XIAP. Br J Cancer 92:532-8, 2005; and Cummings J, Ranson M, Lacasse E, et al: Method validation and preliminary qualification of pharmacodynamic biomarkers employed to evaluate the clinical efficacy of an antisense compound (AEG35156) targeted to the X-linked inhibitor of apoptosis protein XIAP. […]

M30 [6] = assay: phase I study, serum M30 (caspase-cleaved CK18); assay type: in vivo, human
Method: as §4, §5

[7] = test system: relapsed or refractory SCLC; assay: phase 2 study, efficacy (RECIST, PFS, OS); assay type: in vivo, human
Source text: Eligible candidates for the phase 2 portion of this study (NCT00445198) were adults with histologically or cytologically confirmed SCLC, extensive stage, with progressive disease after at least one prior chemotherapy regimen (any number of prior therapies were allowed). […] Patients were excluded if they had underlying or predisposing condition of bleeding (history of non-chemotherapy induced thrombocytopenia with bleeding within 1 year, active peptic ulcer or hemorrhagic esophagitis/gastritis, active immune thrombocytopenic purpura, etc.). This study was conducted according to the Declaration of Helsinki and with approval from Institutional Review Boards of all participating study sites. All participants provided written informed consent before participating. The phase 2 component of this clinical trial was an open-label, single arm study of patients with recurrent and progressive SCLC after at least one prior therapy. Based on the dose and schedule determined in phase 1 (Example 3), patients were treated with navitoclax 150 mg daily for 1 week, and 325 mg daily thereafter. Cycle duration was defined as 21 days. Subjects could remain on therapy indefinitely, until disease progression or intolerable toxicity. […] New guidelines to evaluate the response to treatment in solid tumors. European Organization for Research and Treatment of Cancer, National Cancer Institute of the United States, National Cancer Institute of Canada. […] Additional efficacy variables included PFS and OS. All subjects enrolled were included in the analyses. Descriptive statistics were used to summarize demographic variables. Progression free survival and overall survival were computed using Kaplan-Meier methodology and 95% confidence intervals were provided. Progression free survival (PFS) was defined as the number of days from the date the subject started the study drug to the date the subject experienced an event of disease progression, or if progression was not experienced, then the date of death if the death occurred within 42 days (length of time between tumor assessments). Overall survival (OS) was defined as the number of days from the date the subject started the study drug to the date of the subject's death. […] Correlations between median BCL2 copy number and pro-GRP were performed by the Pearson correlation; M30 and CTC change from baseline comparisons among Pro-GRP groups were performed by one-way ANOVA using the JMP 8.0 statistical software. Optimized thresholds for the tumor markers were obtained using BATTing (Bootstrapping and Aggregating Thresholds from Trees) method (See, […]., Bagging Predictors. Machine Learning 26:123-140, 1996, fully incorporated herein by reference). Briefly, BATTing uses a tree-based model for threshold estimation. However, a single tree may be unstable and not robust enough against small perturbations in the distribution of the data. In addition, single tree-based models are known be prone to overfitting (that is, it is over-specified for training data) and have poor prediction power. Those issues are addressed in BATTing by aggregating the thresholds from multiple trees to get a more robust estimate. Each tree is built using a bootstrap random sample drawn from the original population and provides its own cutoff. The final estimate of the threshold is calculated as the median from the distribution of cutoffs generated from the multiple trees. This procedure was implemented using the R statistical software (available online from the R project). Several exploratory correlative biomarkers were included in this study, including both CTC enumeration and plasma protein markers associated with small cell lung cancer. The biomarker analysis included all phase II patients and, to increase the sample size, patients with SCLC and those dosed with >325 mg navitoclax on the phase I portion of this study were also included in the analysis. […]

[8] = phase I dose-escalation study, safety; assay type: in vivo, human
Source text: as §1, §2
as §3, with “cycles thereafter. […]” for “cycles thereafter.”

recurrent SCLC = recurrent SCLC patients; cited from earlier work
[9] = 47 enrolled, 38 evaluable for response
[10] = baseline CYFRA 21.1 above 2.3 ng/ml
[11] = baseline CYFRA 21.1 below 2.3 ng/ml

SMILES: CC1(C)CCC(c2ccc(Cl)cc2)=C(CN2CCN(c3ccc(C(=O)NS(=O)(=O)c4ccc(NC(CCN5CCOCC5)CSc5ccccc5)c(S(=O)(=O)C(F)(F)F)c4)cc3)CC2)C1 (stereo in doubt) [navitoclax, N-(4-(4-(2-(4-chlorophenyl)-5,5-dimethyl-1-cyclohex-1-en-1-yl)methyl)pip-erazin-1-yl)benzoyl)-4-(((1R)-3-(morpholin-4-yl)-1-((phenylsulfanyl)methyl)propyl)amino)-3-((trifluoromethyl)sulfonyl)benzenesulfonamide]
- half-life [1]: ~900 min
- subjects with partial response [2, 9]: One
- subjects with stable disease [2, 9]: 7
- duration of partial response ([2]; one subject, remains on study): over 26 months
- M30 concentrations (M30 [3]; better prognosis patients, high Pro-GRP group (above 600 pg/mL)): 205%
- M30 concentrations (M30 [3]; better prognosis patients, low Pro-GRP group (below 600 pg/mL)): 116%
- M30 concentrations (M30 [3]; total population, high Pro-GRP group n=19): 212%
- M30 concentrations (M30 [3]; total population, low Pro-GRP n=13): 109%
- study discontinuation due to AEs [4]: 28%
- median CTC number ([5]; better prognosis patients, high pro-GRP group, baseline to day 14): 91 % of baseline
- median CTC number ([5]; better prognosis patients, low pro-GRP group, baseline to day 14): 349 % of baseline
- median CTC number ([5]; total population, high pro-GRP group n=12): 186 % of baseline
- median CTC number ([5]; total population, low pro-GRP group n=8): 518 % of baseline
- Pro-GRP levels overall (pro-GRP): declined or stabilized with increasing navitoclax dose
- time of rise in M30 following the first dose (M30 [6]; in most instances): ≤ 6 h
- circulating M30 (M30 [6]; serum, cycle 1, post first exposure): dose-dependent transient increase in circulating M30
- Median OS Above threshold ([7]; baseline CTC above 12/7.5 ml): 67 (17) D
- Median PFS Above threshold ([7]; baseline CTC above 12/7.5 ml): 46 (15) D
- Median PFS Below threshold ([7]; baseline CTC below 12/7.5 ml): 63 (14) D
- Median OS Above threshold [7, 10]: 67 (19) D
- Median PFS Above threshold [7, 10]: 44 (19) D
- Median OS Below threshold [7, 11]: 242 (20) D
- Median PFS Below threshold [7, 11]: 53 (20) D
- Median OS Above threshold ([7]; baseline NSE above 15 ng/ml): 72 (24) D
- Median PFS Above threshold ([7]; baseline NSE above 15 ng/ml): 44 (24) D
- Median OS Below threshold ([7]; baseline NSE below 15 ng/ml): 242 (15) D
- Median PFS Below threshold ([7]; baseline NSE below 15 ng/ml): 55 (15) D
- median OS ([7]; patients above thresholds for both NSE and CYFRA (poor prognosis), n=15): 61 days
- median PFS ([7]; patients above thresholds for both NSE and CYFRA (poor prognosis), n=16): 41 days
- median OS ([7]; patients not above both NSE and CYFRA thresholds, n=18): 242 days
- median PFS ([7]; patients not above both NSE and CYFRA thresholds, n=23): 55 days
- Median progression-free survival (PFS) ([7]; phase 2, 39 patients): 1.5 months
- best response of disease progression (PD) ([7]; phase 2, 39 patients): 41%
- confirmed partial response (PR) ([7]; phase 2, 39 patients): 2.6%
- inevaluable for response ([7]; phase 2, 39 patients): 33.3%
- median overall survival (OS) ([7]; phase 2, 39 patients): 3.2 months
- stable disease (SD) as best response ([7]; phase 2, 39 patients): 23.1%
- Best response PD, N (%) ([7]; phase 2, N = 39): 16 (41.0) N (%)
- Best response PR, N (%) ([7]; phase 2, N = 39): 1 (2.6) N (%)
- Best response SD, N (%) ([7]; phase 2, N = 39): 9 (23.1) N (%)
- Median OS, mo (95% CI) ([7]; phase 2, N = 39): 3.2 (2.3, 8.1) mo
- ORR, % (95% CI) ([7]; phase 2, N = 39): 2.6 (0.1, 13.5) %
- Median PFS, mo (95% CI) ([7]; phase 2, N = 39, 150 mg daily 1 week then 325 mg daily): 1.5 (1.4, 1.7) mo
- Best response inevaluable, N (%) ([7]; phase 2, N = 39, baseline tumor data only): 13 (33.3) N (%)
- recommended phase 2 dose ([8]; from exploration of doses and schedules in phase I): 325 mg daily
- toxicities / tolerability ([8]; phase I, intermittent and continuous dosing cohorts): dose and schedule-dependent thrombocytopenia, diarrhea, nausea, and fatigue; also recorded: safe, well-tolerated, with dose-dependent thrombocytopenia as the major side effect; also recorded: rapid and dose-dependent thrombocytopenia

SMILES: CC[C@@]1(O)C(=O)OCc2c1cc1n(c2=O)Cc2cc3c(CN(C)C)c(O)ccc3nc2-1 [topotecan]
- response rate (recurrent SCLC): 2-6%
